Ki data for 23 molecules are collected here from BindingDB's records for PubMed 8100350 (University of Pennsylvania, 1993).

*1 amine or outer side, *2 acyl side, *3 side chain or, on linkers, in order; H or OH if unused. Where a SMILES comes first, the peptide text is derived from it. Bridges are numbered along the chain shown (N, C = ends). [ ]: non-standard residue; d: D form. The star is where a group is joined. ξ: configuration not given here. Phe(4-NO2) = N[C@@H](Cc1ccc([N+](=O)[O-])cc1)C(=O)O; NH(1-naphthylmethyl) = c1ccc2c(CN*)cccc2c1; Phe(4-Cl) = N[C@@H](Cc1ccc(Cl)cc1)C(=O)O; dPhe(4-Cl) = N[C@H](Cc1ccc(Cl)cc1)C(=O)O; 1Nal = N[C@@H](Cc1cccc2ccccc12)C(=O)O; 2Nal = N[C@@H](Cc1ccc2ccccc2c1)C(=O)O; d1Nal = N[C@H](Cc1cccc2ccccc12)C(=O)O; d2Nal = N[C@H](Cc1ccc2ccccc2c1)C(=O)O; dThr(3ξ) = CC(O)[C@@H](N)C(=O)O; X1 = O=C(C(N[*:1])S[*:3])[*:2]; Thr(3ξ) = CC(O)[C@H](N)C(=O)O; ξF = NC(Cc1ccccc1)C(=O)O; Abu = CC[C@H](N)C(=O)O; X2 = CC(O)[C@H](CO)N*; Ahp = NCCCCCCC(=O)O; ξC = NC(CS)C(=O)O; Mpa = O=C(O)CCS

The term Ki denotes the equilibrium dissociation constant of an inhibitor or competing ligand from its target. High values mean lower affinity, low ones higher affinity.

For assay [1], the target named is Somatostatin receptor type 3 (Mus musculus, UniProt P30935).
Chain of Somatostatin receptor type 3 (P30935 whole entry): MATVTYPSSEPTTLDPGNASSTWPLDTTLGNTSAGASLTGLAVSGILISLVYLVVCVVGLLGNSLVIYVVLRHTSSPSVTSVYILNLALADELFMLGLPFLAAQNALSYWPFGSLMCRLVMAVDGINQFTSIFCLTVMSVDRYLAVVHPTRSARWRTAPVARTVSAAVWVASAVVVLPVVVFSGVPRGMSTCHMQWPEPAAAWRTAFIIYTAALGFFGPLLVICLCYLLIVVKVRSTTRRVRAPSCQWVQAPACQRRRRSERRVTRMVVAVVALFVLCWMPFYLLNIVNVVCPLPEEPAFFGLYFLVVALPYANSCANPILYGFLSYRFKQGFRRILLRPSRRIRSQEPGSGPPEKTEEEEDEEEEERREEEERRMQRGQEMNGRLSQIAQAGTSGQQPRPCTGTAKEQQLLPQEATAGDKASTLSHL
The target of assay [2] is Somatostatin receptor type 2 (Mus musculus, UniProt P30875).
Chain of Somatostatin receptor type 2 (P30875 whole entry): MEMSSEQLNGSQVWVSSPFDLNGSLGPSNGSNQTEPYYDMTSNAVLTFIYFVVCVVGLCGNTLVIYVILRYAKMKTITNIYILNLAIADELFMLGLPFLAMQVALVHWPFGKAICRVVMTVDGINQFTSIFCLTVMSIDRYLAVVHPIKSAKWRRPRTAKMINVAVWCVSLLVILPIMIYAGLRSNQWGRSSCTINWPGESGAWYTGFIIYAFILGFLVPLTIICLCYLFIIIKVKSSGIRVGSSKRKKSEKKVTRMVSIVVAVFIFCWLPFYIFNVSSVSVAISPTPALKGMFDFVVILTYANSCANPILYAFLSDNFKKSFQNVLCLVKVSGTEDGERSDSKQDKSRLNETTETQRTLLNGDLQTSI
Assay [3] has as its target Somatostatin receptor type 1 (Homo sapiens, UniProt P30872).

Chain of Somatostatin receptor type 1 (P30872 whole entry): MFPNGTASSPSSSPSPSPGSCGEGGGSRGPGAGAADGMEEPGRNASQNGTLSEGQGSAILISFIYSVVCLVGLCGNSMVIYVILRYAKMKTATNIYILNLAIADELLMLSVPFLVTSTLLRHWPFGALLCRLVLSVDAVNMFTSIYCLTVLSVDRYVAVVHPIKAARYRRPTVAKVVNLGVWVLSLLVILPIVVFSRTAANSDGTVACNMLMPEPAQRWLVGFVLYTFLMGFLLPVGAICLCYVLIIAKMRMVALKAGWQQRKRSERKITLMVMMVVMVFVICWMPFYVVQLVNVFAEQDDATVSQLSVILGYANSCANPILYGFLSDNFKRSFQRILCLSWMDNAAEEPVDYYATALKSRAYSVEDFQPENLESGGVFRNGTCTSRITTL

For the molecule `C[C@@H](O)[C@H](NC(=O)[C@@H]1CSSC[C@H](NC(=O)[C@H](N)Cc2ccc3ccccc3c2)C(=O)N[C@@H](Cc2ccc(O)cc2)C(=O)N[C@H](Cc2c[nH]c3ccccc23)C(=O)N[C@@H](CCCCN)C(=O)N[C@@H]([C@@H](C)O)C(=O)N1)C(N)=O` [D-Nal-c[Cys-Tyr-D-Trp-Lys-Thr-Cys]-Thr-NH2], the Ki in assay [1] worked out at 7.1 nM; in assay [2] it was 0.008 nM; in assay [3] it was 1000 nM.
`CC1NC(=O)C(CCCCN)NC(=O)C(Cc2c[nH]c3ccccc23)NC(=O)C(Cc2ccc(O)cc2)NC(=O)C(NC(=O)C(N)Cc2ccccc2)CSSCC(C(=O)NCc2cccc3ccccc23)NC1=O` (stereo not drawn) [BIM 23034] (H-FCYWKAC-{NH(1-naphthylmethyl)}; disulfide 2-7; configuration not given here): the Ki was 65 nM in assay [1], 0.002 nM in assay [2] and 1000 nM in assay [3].
With `CC(C)[C@@H]1NC(=O)[C@H](CCCCN)NC(=O)[C@@H](Cc2c[nH]c3ccccc23)NC(=O)[C@H](Cc2ccc(O)cc2)NC(=O)CCSSC(C(=O)N[C@@H](Cc2ccccc2)C(N)=O)NC1=O` (stereo partly drawn) [CAS_117580-24-2] ([Mpa]Y[dW]KV[X1]F-NH2; disulfide 1-6), the Ki in assay [1] turned out to be 133 nM; in assay [2], 6.1 nM; in assay [3] it was 1000 nM.
Take `CC(C)[C@H](NC(=O)[C@H](CCCCN)NC(=O)[C@@H](Cc1c[nH]c2ccccc12)NC(=O)[C@H](Cc1ccc(O)cc1)NC(=O)[C@H](C)NC(=O)[C@H](N)Cc1ccc2ccccc2c1)C(=O)N[C@@H](C)C(=O)N[C@H](C(N)=O)[C@@H](C)O` [D-Nal-Ala-Tyr-D-Trp-Lys-Val-Ala-Thr-NH2] (H-[d2Nal]AY[dW]KVAT-NH2): the Ki is 10 nM in assay [1], 86 nM in assay [2] and 1000 nM in assay [3].
Taken in the same sequence, the figures for `CC(C)[C@H](NC(=O)[C@H](CCCCN)NC(=O)[C@@H](Cc1c[nH]c2ccccc12)NC(=O)[C@H](Cc1ccc(O)cc1)NC(=O)[C@H](C)NC(=O)[C@H](N)Cc1ccc(Cl)cc1)C(=O)N[C@@H](C)C(=O)N[C@@H](Cc1ccc2ccccc2c1)C(N)=O` [CAS_150155-67-2] (H-[dPhe(4-Cl)]AY[dW]KVA[2Nal]-NH2) were 143 nM, 22 nM and 1000 nM.
Taken in the same sequence, the figures for `C[C@@H]1NC(=O)[C@@H]2CCCN2C(=O)[C@H](Cc2ccccc2)NC(=O)[C@H]([C@@H](C)O)NC(=O)[C@H](CCCCN)NC(=O)[C@@H](Cc2c[nH]c3ccccc23)NC1=O` [cyclo(Pro-Ala-Trp-Lys-Thr-Phe)] (cyclo(A[dW]KTFP)) were 244 nM, 356 nM and 1000 nM.
For `CC(O)C1NC(=O)C(CCCCN)NC(=O)C(Cc2c[nH]c3ccccc23)NC(=O)C(Cc2ccc(O)cc2)NC(=O)C(NC(=O)C(N)Cc2ccccc2)CSSCC(C(=O)NCc2cccc3ccccc23)NC1=O` (stereo not drawn) [BIM 23060] (H-FCYWKTC-{NH(1-naphthylmethyl)}; disulfide 2-7; configuration not given here), in that order: 17.4 nM, 0.01 nM and 1000 nM.
Regarding `C[C@@H](O)[C@H](NC(=O)[C@H](Cc1ccccc1)NC(=O)[C@@H](NC(=O)[C@H](CCCCN)NC(=O)[C@@H](Cc1c[nH]c2ccccc12)NC(=O)[C@H](Cc1ccccc1)NC(=O)[C@H](Cc1ccccc1)NC(=O)[C@H](N)Cc1ccccc1)[C@@H](C)O)C(N)=O` [CAS_133073-82-2] (H-[dF]FF[dW]KTFT-NH2), the Ki in assay [1] is 0.42 nM; in assay [2] it was 32 nM; in assay [3] it was 23 nM.
For `C[C@@H](O)[C@@H]1NC(=O)[C@H](CCCCN)NC(=O)[C@@H](Cc2c[nH]c3ccccc23)NC(=O)[C@H](Cc2ccccc2)NC(=O)CCCCCCNC1=O` [c[Aha-Phe-D-Trp-Lys-Thr]] (cyclo([Ahp]F[dW]KT)), in that order: 1000 nM, 1000 nM and 1000 nM.
For `CC(C)[C@H](NC(=O)[C@H](CCCCN)NC(=O)[C@@H](Cc1c[nH]c2ccccc12)NC(=O)[C@H](Cc1ccc(O)cc1)NC(=O)[C@H](Cc1ccc([N+](=O)[O-])cc1)NC(=O)[C@H](N)Cc1ccccc1)C(=O)N[C@@H](Cc1ccccc1)C(=O)N[C@H](C(N)=O)[C@@H](C)O` [BIM 23066] (H-[dF][Phe(4-NO2)]Y[dW]KVFT-NH2), in that order: 1.1 nM, 3.1 nM and 1000 nM.
Take `CC(C)[C@H](NC(=O)[C@H](CCCCN)NC(=O)[C@@H](Cc1c[nH]c2ccccc12)NC(=O)[C@H](Cc1ccc(O)cc1)NC(=O)[C@H](Cc1ccccc1)NC(=O)[C@H](N)Cc1ccccc1)C(=O)N[C@@H](Cc1ccccc1)C(=O)N[C@H](Cc1cccc2ccccc12)C(N)=O` [BIM 23056] (H-[dF]FY[dW]KVF[d1Nal]-NH2): the Ki in assay [1] is 0.02 nM; in assay [2], greater than 10000 nM; in assay [3], 1000 nM.
Turning to `C[C@H](N)C(=O)NCC(=O)N[C@H]1CSSC[C@@H](C(=O)O)NC(=O)[C@H](CO)NC(=O)[C@H]([C@@H](C)O)NC(=O)[C@H](Cc2ccccc2)NC(=O)[C@H]([C@@H](C)O)NC(=O)[C@H](CCCCN)NC(=O)[C@@H](Cc2c[nH]c3ccccc23)NC(=O)[C@H](Cc2ccccc2)NC(=O)[C@H](Cc2ccccc2)NC(=O)[C@H](CC(N)=O)NC(=O)[C@H](CCCCN)NC1=O` [SRIF-D-Trp8], the affinity in assay [2], expressed as Ki, was 0.005 nM.
`C[C@@H](O)[C@@H]1NC(=O)[C@H](CCCCN)NC(=O)[C@@H](Cc2c[nH]c3ccccc23)NC(=O)[C@H](Cc2ccc(Cl)cc2)NC(=O)[C@H](Cc2ccccc2)NC(=O)CCCCCCNC(=O)[C@H](Cc2ccccc2)NC1=O` [L-362862] (cyclo([Ahp]F[Phe(4-Cl)][dW]KTF)): the Ki in assay [1] came to 24 nM; in assay [2], 8.3 nM; in assay [3], 580 nM.
Taken in the same sequence, the figures for `C[C@@H](O)[C@@H]1NC(=O)[C@H](CCCCN)NC(=O)[C@@H](Cc2c[nH]c3ccccc23)NC(=O)[C@H](Cc2ccccc2)NC(=O)[C@@H]2CSSCC(NC1=O)C(=O)NCCCCCCC(=O)N2` [(1R,4S,7S,10R,13S,16R)-4-[(R)-1-Hydroxyethyl]-7-(4-aminobutyl)-10-(1H-indole-3-ylmethyl)-13-benzyl-28,29-dithia-2,5,8,11,14,17,25-heptaazabicyclo[14.10.4]triacontane-3,6,9,12,15,18,26-heptone] (cyclo([Ahp]CF[dW]KT[ξC]); disulfide 2-7) were 0.08 nM, 83 nM and 1000 nM.
For `C[C@@H](O)[C@@H]1NC(=O)[C@H](CCCCN)NC(=O)[C@@H](Cc2c[nH]c3ccccc23)NC(=O)[C@H](Cc2c[nH]c3ccccc23)NC(=O)[C@H](Cc2ccccc2)NC(=O)CCCCCCNC(=O)[C@H](Cc2ccccc2)NC1=O` [L-362855] (cyclo([Ahp]FW[dW]KTF)), in that order: 30 nM, 29 nM and 1000 nM.
Taken in the same sequence, the figures for `CC(O)[C@H](NC(=O)[C@H](CCCCN)NC(=O)[C@@H](Cc1c[nH]c2ccccc12)NC(=O)[C@H](Cc1ccc(O)cc1)NC(=O)[C@@H](C)NC(=O)[C@@H](N)Cc1ccccc1)C(=O)N[C@@H](C)C(=O)N[C@@H](Cc1cccc2ccccc12)C(N)=O` (stereo partly drawn) [BIM 23070] (H-F[dA]Y[dW]K[Thr(3ξ)]A[1Nal]-NH2) were 111 nM, 7.8 nM and 1000 nM.
Turning to `CC(C)[C@@H]1NC(=O)[C@H](CCCCN)NC(=O)[C@@H](Cc2c[nH]c3ccccc23)NC(=O)[C@H](Cc2ccc(O)cc2)NC(=O)[C@@H](NC(=O)[C@H](N)Cc2ccc3ccccc3c2)CSSC[C@@H](C(=O)N[C@H](C(N)=O)[C@@H](C)O)NC1=O` [3-(2-Naphtyl)-D-Ala-L-Cys(1)-L-Tyr-D-Trp-L-Lys-L-Val-L-Cys(1)-L-Thr-NH2], the Ki in assay [1] was 5.6 nM; in assay [2] it was 1.6 nM; in assay [3], 789 nM.
For `CC[C@@H]1NC(=O)[C@H](CCCCN)NC(=O)[C@@H](Cc2c[nH]c3ccccc23)NC(=O)[C@H](Cc2ccc(O)cc2)NC(=O)[C@@H](NC(=O)[C@H](N)Cc2ccccc2)CSSC[C@@H](C(=O)N[C@H](C(N)=O)[C@@H](C)O)NC1=O` [D-Phe-L-Cys(1)-L-Tyr-D-Trp-L-Lys-L-Abu-L-Cys(1)-L-Thr-NH2], in that order: 13.5 nM, 0.001 nM and 1000 nM.
Taken in the same sequence, the figures for `CC(C)[C@@H]1NC(=O)[C@H](CCCCN)NC(=O)[C@@H](Cc2c[nH]c3ccccc23)NC(=O)[C@H](Cc2ccc(O)cc2)NC(=O)[C@@H](C)N(C)C(=O)[C@H](Cc2ccccc2)NC1=O` were 4.7 nM, greater than 10000 nM and 419 nM.
Regarding `CC(O)[C@H](CO)NC(=O)[C@@H]1CSSCC(NC(=O)C(N)Cc2ccccc2)C(=O)N[C@H](Cc2ccccc2)C(=O)N[C@H](Cc2c[nH]c3ccccc23)C(=O)N[C@H](CCCCN)C(=O)N[C@H](C(C)O)C(=O)N1` (stereo partly drawn) (H-[ξF][ξC][dF][dW][dK][dThr(3ξ)]C-X2; disulfide 2-7), the Ki turned out to be 3 nM in assay [1] and 2.4 nM in assay [2].
For `CC(C)[C@@H]1NC(=O)[C@H](CCCCN)NC(=O)[C@@H](Cc2c[nH]c3ccccc23)NC(=O)[C@H](Cc2ccc(O)cc2)NC(=O)[C@H](C)N(C)C(=O)[C@H](Cc2ccccc2)NC1=O` [CAS_3086456], in that order: 12 nM and 0.18 nM.
Taken in the same sequence, the figures for `C[C@@H](O)[C@@H]1NC(=O)[C@H](Cc2ccccc2)NC(=O)[C@H]([C@@H](C)O)NC(=O)[C@H](CCCCN)NC(=O)[C@@H](Cc2c[nH]c3ccccc23)NC(=O)[C@H](Cc2ccccc2)NC(=O)[C@H](Cc2ccc(Cl)cc2)NC(=O)[C@H](CC(N)=O)NC(=O)[C@H](CCCCN)NC(=O)[C@@H](N)CSSC[C@@H](C(=O)O)NC(=O)[C@H](CO)NC1=O` [EC5-21] (H-CKN[Phe(4-Cl)]F[dW]KTFTSC-OH; disulfide 1-12) were 2.1 nM and 0.005 nM.
Taken in the same sequence, the figures for `CC[C@H](NC(=O)[C@@H](N)Cc1ccc(Cl)cc1)C(=O)N[C@@H](Cc1ccc(O)cc1)C(=O)N[C@H](Cc1c[nH]c2ccccc12)C(=O)N[C@@H](CCCCN)C(=O)N[C@H](C(=O)N[C@@H](C)C(=O)N[C@H](Cc1ccccc1)C(N)=O)C(C)C` [BIM 23067] (H-[Phe(4-Cl)][Abu]Y[dW]KVA[dF]-NH2) were 123 nM and 135 nM.
